Our source for the IC50 and EC50 values is patent US20240425497A1, “Cbl-b Inhibitors and Methods of Use Thereof” (ARCUS BIOSCIENCES, INC., priority 2023, published 2024).

The target of one test is Cbl-b (Homo sapiens (Human), UniProt Q13191). As to the kind of experiment: Cbl-b probe displacement HTRF binding assay. Conditions: 0.4 nM biotinylated Cbl-b, 150 nM BODIPY probe. Here is the method: The affinity with which compounds of the present disclosure bind to Cbl-b was assessed using probe displacement homologous time resolved fluorescence (HTRF) assays. The assays used a BODIPY™ conjugated probe (Example 54 from WO 2020264398) and biotinylated Cbl-b. The assays were performed in assay buffer consisting of 20 mM Hepes, 150 mM NaCl, 0.01% Triton X-100, 0.5 mM TCEP, 0.01% BSA. On the day of the assay, a 20 point, 1:2 master serial dilution of each compound was prepared in DMSO to span a final concentration range of 10 μM to 0 nM. Two hundred nanoliters of diluted compound was added to each well of a 384-well plate. Fifteen microliters of biotinylated-Cbl-b resuspended in assay buffer were added to each well and the plate incubated for 60 minutes at room temperature prior to addition of 5 μL of BODIPY™ probe in assay buffer. Final assay conditions included 0.4 nM of Cbl-b and 150 nM of BODIPY™ probe. After a further 15 minutes of incubation at room temperature, 5 μl of Streptavidin-Terbium cryptate reagent at 5-fold final concentration was added to each well of the 384-well plate. Binding of a probe to Cbl-b results in an increase of HTRF signal. HTRF signal was measured by Envision plate reader, while competition of a compound of the present disclosure with probe results in a decrease of signal. Percentage maximum activity in each test well was calculated based on DMSO (maximum activity, 0% displacement) and no protein control wells (baseline activity, 100% displacement). Binding affinity was determined from a dose response curve fitted using a standard four parameter fit equation. See Table 3 for data for compounds (Cbl-b Binding (IC50)).
For orientation: TR-FRET usually uses a lanthanide donor and a delayed reading to cut background.

The subject of another test is Jurkat cells. Briefly: IL-2 secretion assay in CD3/CD28-activated Jurkat cells (AlphaLISA). In kind it is cell-based, human. The note with it: Homo sapiens, CD3/CD28 activation, 24 h. As to the method:
Certain compounds were also evaluated in an IL-2 secretion assay. On the day of the assay, a 16 point, 1:2 master serial dilution of each compound was prepared in Opti-MEM to span a final concentration range of […]. Assays were set up in CORNING® tissue culture-treated 384-well microplates containing 60 nL of each dilution. Jurkat cells grown in RPMI-1640 supplemented with 10% FBS, 1% Glutamax, and 1% Pen/Strep were collected, resuspended in Opti-MEM. 50,000 cells/well and added to the compound plates. After a short spin (1200 rpm for 1 min), the plates were incubated at 37° C. for 1 hour. The cells were activated by adding 15 μL of IMMUNOCULT™ Human CD3/CD28 T Cell Activator (STEMCELL Technologies) diluted in Opti-MEM. After 24 h of incubation at 37° C., aliquots of culture supernatants were transferred to OptiPlate-384 (PerkinElmer) microplates. The level of JIL-2 secretion in the supernatants was then determined using the IL-2 (human) AiphaLISA Detection Kit (PerkinElmer) according to the manufacturer's recommendations. The AiphaLISA signal was measured using an EnVision plate reader (PerkinElmer). EC50 values were determined by fitting the data to a standard 4-parameter logistic equation. See Table 3 for data for select compounds (IL-2 Secretion (EC50)).
For orientation: Alpha assays give light when donor and acceptor beads are brought close together.

The term IC50 denotes the concentration that inhibits the measured activity by half. A higher IC50 goes with weaker potency. Broadly, the EC50 is the concentration giving half of the maximal effect. Read a high EC50 as a less potent agent.

Cbl-b, sequence (Q13191 whole entry, species assumed): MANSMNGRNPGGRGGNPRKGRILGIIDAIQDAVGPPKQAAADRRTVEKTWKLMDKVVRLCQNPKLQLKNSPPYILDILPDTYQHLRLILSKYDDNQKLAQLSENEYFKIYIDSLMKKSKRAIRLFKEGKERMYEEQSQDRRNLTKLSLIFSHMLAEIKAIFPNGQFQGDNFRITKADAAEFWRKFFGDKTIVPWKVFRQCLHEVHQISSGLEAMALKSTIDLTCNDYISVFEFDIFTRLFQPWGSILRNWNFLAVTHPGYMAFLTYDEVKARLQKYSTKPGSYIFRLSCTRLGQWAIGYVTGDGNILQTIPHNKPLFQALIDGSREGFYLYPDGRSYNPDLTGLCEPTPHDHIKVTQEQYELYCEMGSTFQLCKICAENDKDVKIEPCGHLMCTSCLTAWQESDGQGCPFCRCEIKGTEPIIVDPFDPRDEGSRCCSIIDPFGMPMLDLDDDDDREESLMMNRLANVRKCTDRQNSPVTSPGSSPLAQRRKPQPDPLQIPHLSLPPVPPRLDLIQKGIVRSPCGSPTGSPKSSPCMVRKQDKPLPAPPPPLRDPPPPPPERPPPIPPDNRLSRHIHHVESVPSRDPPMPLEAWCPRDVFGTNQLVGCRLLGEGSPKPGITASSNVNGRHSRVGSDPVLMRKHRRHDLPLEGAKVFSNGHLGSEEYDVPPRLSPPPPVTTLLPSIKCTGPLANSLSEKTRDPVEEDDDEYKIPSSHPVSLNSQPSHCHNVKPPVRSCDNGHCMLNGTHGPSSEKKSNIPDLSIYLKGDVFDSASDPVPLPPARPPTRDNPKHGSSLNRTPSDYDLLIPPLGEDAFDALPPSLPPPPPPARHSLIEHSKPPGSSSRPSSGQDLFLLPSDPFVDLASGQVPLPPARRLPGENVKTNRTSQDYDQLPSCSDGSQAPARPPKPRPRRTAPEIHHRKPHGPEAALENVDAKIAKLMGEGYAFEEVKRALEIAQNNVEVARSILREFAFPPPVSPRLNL

As to `C[C@H]1CCCN(Cc2cc3c(C4CC4)cn(-c4cc(-c5ccc(F)cc5C(=O)N5CC(F)(F)C5)cc(C5CC5)n4)c(=O)c3[nH]2)C1` [Example 14, 2-{[(S)-3-methyl-1-piperidyl]methyl}-4-cyclopropyl-6-(6-cyclopropyl-4-{2-[(3,3-difluoro-1-azetidinyl)carbonyl]-4-fluorophenyl}-2-pyridyl)-1,6-dihydro-1,6-diaza-7-indenone], the 50% inhibitory concentration (IC50) on Cbl-b is below 100 nM. This compound came in with a 50% effective concentration (EC50) with Jurkat cells below 100 nM.
On Cbl-b, `CC1CCN1C(=O)c1cc(F)ccc1-c1cc(C2CC2)nc(-n2cc(C3CC3)c3cc(CN4CCC[C@H](C)C4)[nH]c3c2=O)c1` (stereo partly drawn) [Example 15, 2-{[(S)-3-methyl-1-piperidyl]methyl}-4-cyclopropyl-6-(6-cyclopropyl-4-{4-fluoro-2-[(2-methyl-1-azetidinyl)carbonyl]phenyl}-2-pyridyl)-1,6-dihydro-1,6-diaza-7-indenone] had an IC50 below 100 nM. Further, the 50% effective concentration (EC50) in the test with Jurkat cells was in the range of 100 to 1000 nM.
On the same counts, the results for `C[C@H]1CCCN(Cc2cc3c(C4CC4)cn(-c4cc(-c5ccc(F)cc5C(=O)N5CC(C#N)C5)cc(C5CC5)n4)c(=O)c3[nH]2)C1` [Example 16, 1-{2-[2-(2-{[(S)-3-methyl-1-piperidyl]methyl}-4-cyclopropyl-7-oxo-1,6-dihydro-1,6-diaza-6-indenyl)-6-cyclopropyl-4-pyridyl]-5-fluorobenzoyl}-3-azetidinecarbonitrile] are below 100 nM and below 100 nM.
For the compound `O=C(c1cc(F)ccc1-c1cc(C2CC2)nc(-n2cc(C3CC3)c3cc(CN[C@H]4CCC[C@H]4O)[nH]c3c2=O)c1)N1CC(F)C1` [Example 17, 2-{[(1S,2R)-2-hydroxycyclopentylamino]methyl}-4-cyclopropyl-6-(6-cyclopropyl-4-{4-fluoro-2-[(3-fluoro-1-azetidinyl)carbonyl]phenyl}-2-pyridyl)-1,6-dihydro-1,6-diaza-7-indenone], at Cbl-b, the half-inhibitory concentration (IC50) was below 100 nM. The same compound came in with an EC50 with Jurkat cells below 100 nM.
`C[C@H]1CCCN(Cc2cc3c(C4CC4)cn(-c4cc(-c5ccc(F)cc5C(N)=O)cc(C5CC5)n4)c(=O)c3[nH]2)C1` [Example 18, 2-[2-(2-{[(S)-3-methyl-1-piperidyl]methyl}-4-cyclopropyl-7-oxo-1,6-dihydro-1,6-diaza-6-indenyl)-6-cyclopropyl-4-pyridyl]-5-fluorobenzamide] gave a half-inhibitory concentration (IC50) on Cbl-b of 100 to 1000 nM. Further, the EC50 in the test with Jurkat cells fell in the range of 100 to 1000 nM.
Regarding `C[C@H]1CCCN(Cc2cc3c(C#N)cn(-c4cc(-c5ccc(F)c(F)c5C(=O)N(C)C)cc(C5CC5)n4)c(=O)c3[nH]2)C1` [Example 19, N,N-dimethyl6-[2-(2-{[(S)-3-methyl-1-piperidyl]methyl}-4-cyano-7-oxo-1,6-dihydro-1,6-diaza-6-indenyl)-6-cyclopropyl-4-pyridyl]-2,3-difluorobenzamide], at Cbl-b, the IC50 was below 100 nM. For the same compound, the half-maximal effective concentration (EC50) in the test with Jurkat cells was 100 to 1000 nM.
At Cbl-b, `C[C@H]1CCCN(Cc2cc3c(C#N)cn(-c4cc(-c5cccnc5C(=O)N(C)C)cc(C5CC5)n4)c(=O)c3[nH]2)C1` [Example 20, N,N-dimethyl-2′-(2-{[(S)-3-methyl-1-piperidyl]methyl}-4-cyano-7-oxo-1,6-dihydro-1,6-diaza-6-indenyl)-6′-cyclopropyl-[3,4′-bipyridyl]-2-carboxamide] registered an IC50 of 100 to 1000 nM. This compound yielded an EC50 with Jurkat cells of 1000 to 5000 nM.
On the same counts, the results for `C[C@H]1CCCN(Cc2cc3c(C#N)cn(-c4cc(-c5ccc(F)cc5C(=O)N5CC(F)C5)cc(C5CC5)n4)c(=O)c3[nH]2)C1` [Example 21, 2-{[(S)-3-methyl-1-piperidyl]methyl}-6-(6-cyclopropyl-4-{4-fluoro-2-[(3-fluoro-1-azetidinyl)carbonyl]phenyl}-2-pyridyl)-7-oxo-1,6-dihydro-1,6-diaza-4-indenecarbonitrile] are below 100 nM and below 100 nM.
In turn, `C[C@H]1CCCN(Cc2cc3c(C#N)cn(-c4cc(C#N)cc(-c5ccc(F)cc5C(=O)N5CC(F)C5)c4)c(=O)c3[nH]2)C1` [Example 22, 2-{[(S)-3-methyl-1-piperidyl]methyl}-6-{5-cyano-4′-fluoro-2′-[(3-fluoro-1-azetidinyl)carbonyl]-3-biphenylyl}-7-oxo-1,6-dihydro-1,6-diaza-4-indenecarbonitrile] registered a 50% inhibitory concentration (IC50) at Cbl-b below 100 nM. The compound further displayed a concentration for a half-maximal effect (EC50) in the test on Jurkat cells of 100 to 1000 nM.
At Cbl-b, `C[C@H]1CCCN(Cc2cc3c(C#N)cn(-c4cc(-c5ccc(F)cc5C(=O)N5CC(F)C5)cc(C(F)(F)F)c4)c(=O)c3[nH]2)C1` [Example 23, 2-{[(S)-3-methyl-1-piperidyl]methyl}-6-{4′-fluoro-2′-[(3-fluoro-1-azetidinyl)carbonyl]-5-(trifluoromethyl)-3-biphenylyl}-7-oxo-1,6-dihydro-1,6-diaza-4-indenecarbonitrile] yielded an IC50 of 100 to 1000 nM. In the test on Jurkat cells, this compound came in with an EC50 of 1000 to 5000 nM.
For `C[C@H]1CCCN(Cc2cc3c(C#N)cn(-c4cncc(-c5ccc(F)cc5C(=O)N5CC(F)C5)c4)c(=O)c3[nH]2)C1` [Example 24, 2-{[(S)-3-methyl-1-piperidyl]methyl}-6-(5-{4-fluoro-2-[(3-fluoro-1-azetidinyl)carbonyl]phenyl}-3-pyridyl)-7-oxo-1,6-dihydro-1,6-diaza-4-indenecarbonitrile], in that order: 100 to 1000 nM and 100 to 1000 nM.
`C[C@H]1CCCN(Cc2cc3ncn(-c4cc(-c5ccc(F)cc5C(=O)N5CC(F)C5)cc(C5CC5)n4)c(=O)c3[nH]2)C1` [Example 25, 2-{[(S)-3-methyl-1-piperidyl]methyl}-6-(6-cyclopropyl-4-{4-fluoro-2-[(3-fluoro-1-azetidinyl)carbonyl]phenyl}-2-pyridyl)-1,6-dihydro-1,4,6-triaza-7-indenone]: the IC50 on Cbl-b is below 100 nM. This compound showed an EC50 with Jurkat cells below 100 nM.
`C[C@@H]1CN(Cc2cc3ncn(-c4cc(-c5ccc(F)cc5C(=O)N5CC(F)C5)cc(C5CC5)n4)c(=O)c3[nH]2)CCO1` [Example 26, 3-[6-cyclopropyl-4-[4-fluoro-2-(3-fluoroazetidine-1-carbonyl)phenyl]pyridin-2-yl]-6-[[(2R)-2-methylmorpholin-4-yl]methyl]-5H-pyrrolo[3,2-d]pyrimidin-4-one]: on Cbl-b, the IC50 was below 100 nM. In the test on Jurkat cells, the concentration for a half-maximal effect (EC50) is below 100 nM.
On to `CC(O)c1cc2ncn(-c3cc(-c4ccc(F)cc4C(=O)N4CC(F)C4)cc(C4CC4)n3)c(=O)c2[nH]1` (stereo not shown) [Example 27, 6-(6-cyclopropyl-4-{4-fluoro-2-[(3-fluoro-1-azetidinyl)carbonyl]phenyl}-2-pyridyl)-2-(1-hydroxyethyl)-1,6-dihydro-1,4,6-triaza-7-indenone], for which the half-inhibitory concentration (IC50) on Cbl-b lay within 100 to 1000 nM. The compound also had a concentration giving a half-maximal response (EC50) with Jurkat cells of 1000 to 5000 nM.
On to `C[C@H]1CCCN(Cc2ccc3c(c2)C(=O)N(c2cc(-c4ccc(F)cc4C(=O)N4CC(F)C4)cc(C4CC4)n2)C3)C1` [Example 28, 6-{[(S)-3-methyl-1-piperidyl]methyl}-2-(6-cyclopropyl-4-{4-fluoro-2-[(3-fluoro-1-azetidinyl)carbonyl]phenyl}-2-pyridyl)-1-isoindolinone], for which, on Cbl-b, the IC50 is below 100 nM. Also, the EC50 in the test with Jurkat cells lay in the range of 100 to 1000 nM.
As for `C[C@H]1CCCN(Cc2nc3c(C4CC4)cn(-c4cc(-c5ccc(F)cc5C(=O)N5CC(F)C5)cc(C5CC5)c4)c(=O)c3[nH]2)C1` [Example 29, 7-cyclopropyl-5-[3-cyclopropyl-5-[4-fluoro-2-(3-fluoroazetidine-1-carbonyl)phenyl]phenyl]-2-[[(3S)-3-methylpiperidin-1-yl]methyl]-3H-imidazo[4,5-c]pyridin-4-one], the IC50 on Cbl-b was below 100 nM. In the test on Jurkat cells, this compound gave an EC50 below 100 nM.
`C[C@H]1CCCN(Cc2cc3c(C4CC4)cn(-c4cc(-c5ccc(F)cc5C(=O)N5CC(F)C5)nc(C5CC5)n4)c(=O)c3[nH]2)C1` [Example 30, 4-cyclopropyl-6-[2-cyclopropyl-6-[4-fluoro-2-(3-fluoroazetidine-1-carbonyl)phenyl]pyrimidin-4-yl]-2-[[(3S)-3-methylpiperidin-1-yl]methyl]—1H-pyrrolo[2,3-c]pyridin-7-one]: the IC50 on Cbl-b is below 100 nM. The EC50 with Jurkat cells is below 100 nM.
